{"source": "patent US9119796B2", "about": "“Razor comprising a molded shaving aid composition comprising a pyrithione source” (The Gillette Company, priority 2011, dated 2015)", "origin": "cited, not measured here", "system": "microbials", "conditions": "soap bar composition with platelet ZPT compared with particulate ZPT (median about 0.70 microns, mean about 0.75 microns, thickness less than 0.6 microns); FIG. 1 of U.S. Ser. No. 13/036,889"}
{"smiles": "[O-]n1ccccc1=S.[O-]n1ccccc1=S.[Zn+2]", "note": "[platelet ZPT, zinc salt of 1-hydroxy-2-pyridinethione]", "values": [{"measurement": "number of colony forming units (CFUs) that form on a substrate", "value": "reduces the number of colony forming units (CFUs)"}]}
